Laboratory results reported in patent US20050130232A1, “Methods of screening for compounds that modulate hormone receptor activity” (Allergan, Inc., priority 2001, published 2005).

Biological target: protein kinase A activity associated with endogenous RXRα (Mus musculus, UniProt P28700)
Conditions: 3T3-L1 adipocytes, 10^-7 M, vs vehicle-treated cells
Description: Kinase activity was determined in the immunoprecipitate using kemptide (LRRASLG; SEQ ID NO: 59) as a substrate. Samples 1,3: 0.1% DMSO (10 minutes).
Kinase activity in the immunoprecipitates was determined as described above using γ-ATP and synthetic peptide SEQ ID NO: 59.

Chain of protein kinase A activity associated with endogenous RXRα (P28700 whole entry): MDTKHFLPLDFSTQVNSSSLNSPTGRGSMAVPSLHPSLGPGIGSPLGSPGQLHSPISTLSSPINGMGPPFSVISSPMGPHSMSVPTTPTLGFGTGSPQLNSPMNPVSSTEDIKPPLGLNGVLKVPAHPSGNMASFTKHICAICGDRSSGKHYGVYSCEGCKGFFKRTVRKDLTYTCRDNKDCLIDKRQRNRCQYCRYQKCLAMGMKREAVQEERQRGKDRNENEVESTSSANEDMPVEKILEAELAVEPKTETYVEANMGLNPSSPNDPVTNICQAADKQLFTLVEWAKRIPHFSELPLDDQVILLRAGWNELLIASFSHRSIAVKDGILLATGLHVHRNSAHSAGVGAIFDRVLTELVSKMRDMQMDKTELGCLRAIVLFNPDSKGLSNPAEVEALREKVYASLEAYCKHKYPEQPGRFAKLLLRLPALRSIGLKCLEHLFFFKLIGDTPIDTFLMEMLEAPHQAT

SMILES: CC(/C=C/[C@@H]1C[C@]1(C)c1ccc2c(c1)C(C)(C)CCC2(C)C)=C\C(=O)O [AGN194204]
- PKA activity associated with endogenous RXRα: increased about two-fold
